Results published in patent US20170105952A1, “HISTONE ACETYL TRANSFERASE ACTIVATORS AND HISTONE DEACETYLASE INHIBITORS IN THE TREATMENT OF ALCOHOLISM” (THE BOARD OF TRUSTEES OF THE UNIVERSITY OF ILLINOIS, priority 2006, published 2017).
“Also recorded” adds a separate entry of the source. Read-outs that look alike come from different tables or passages of the source.

Columns and labels:
acetylated histone H3 [1] = conditions: acute ethanol vs n-saline
Experimental: (§1) The protein levels of acetylated histone H3, acetylated histone H4, and CBP in the CeA structures of n-saline- or acute ethanol-treated rats were measured by immunohistochemistry.

acetylated histone H4 = conditions: acute ethanol vs n-saline
Experimental: as §1

CBP [2] = conditions: acute ethanol vs n-saline
Experimental: as §1

Sprague-Dawley (SD) rats = conditions: ethanol 1 g/kg intraperitoneal injection vs n-saline, after one hour
Experimental: (§2) The effect of acute ethanol exposure on HDAC activity, histone acetylation level, and CBP level was measured in Sprague-Dawley (SD) rats. Rats were injected with ethanol (1 g/kg intraperitoneal injection) or n-saline, and after one hour, anxiolytic responses were measured. […] The amygdala was then dissected out, and HDAC activity was measured.

HDACs in the amygdala = conditions: ethanol 1 g/kg intraperitoneal injection, after one hour
Experimental: as §2

HDAC = conditions: Balasubramanyam et al 2003; cited from earlier work
p300 HAT = p300 HAT (Homo sapiens, UniProt Q09472); conditions: Balasubramanyam et al 2003; cited from earlier work
acetylated histone H3 [3] = assay: Acetylated histone H3 protein levels in amygdaloid structures of ethanol-withdrawn rats (gold-immunolabeling); format: in vivo; conditions: for histone H3-K9 acetylation: SAHA 50 mg/kg intraperitoneally, FIG. 3
Experimental: (§3) The effect of HDAC inhibition on acetylated histone H3, CBP, and Sir-2 (HDAC III) level in ethanol-withdrawn SD rats after chronic ethanol exposure was assayed using trichostatin A (TSA). SD rats were fed control or ethanol liquid diet, and ethanol-fed rats were withdrawn for 24 hours. Ethanol-withdrawn and control rats were treated with TSA or vehicle, and protein levels were measured in amygdaloid structures by gold-immunolabeling. In the CeA and MeA, but not in the BLA, ethanol withdrawal produced significant reductions in protein levels of acetylated histone H3 and CBP-HAT, and produced an increase in protein levels of Sir-2. […] Thus, histone acetylation is normalized by TSA treatment due to inhibition of HDAC activity.
In the CeA and MeA, but not in the BLA, ethanol withdrawal produced significant reductions in protein levels of acetylated histone H3-K9.

[4] = system: ethanol-withdrawn SD rats; assay: Elevated-plus maze (EPM) test of anxiety-like behaviors in ethanol-withdrawn rats; format: in vivo
Experimental: The effect of HDAC inhibition on anxiety-like behaviors of ethanol-withdrawn SD rats after chronic ethanol exposure was assayed using the class I and class II HDAC inhibitor trichostatin A (TSA). SD rats were fed with control or ethanol liquid diet, and ethanol-fed rats were withdrawn for 24 hours as described previously (Pandey et al, Alcohol Clin. Exp. Res. 27:396-409, 2003). Ethanol-withdrawn and control rats were treated with TSA or vehicle (1:5 dilution of DMSO with phosphate-buffered saline) two hours before measuring anxiety-like behaviors using the elevated-plus maze (EPM) test. The EPM is a cross-shaped elevated apparatus consisting of two open arms and two closed arms arranged directly opposite each other and connected to a central platform. To measure anxiety-like behaviors, a test rat was habituated for five-minutes in the test room and then placed on the central platform facing an open arm. The number of entries to each type of arm over a five-minute period was observed and recorded. EPM test results were reported as the mean±SEM of the percent of open-arm entries and the percent of time spent on the open arms. These collectively are referred to as open-arm activity. The general activity of each rat was measured by calculating the sum of open- and closed-arm entries. In the EPM test, ethanol withdrawal after chronic ethanol exposure produced increased anxiety-like behaviors as measured by a reduction in open-arm activities. […]
The effect of Sir-2 inhibition on anxiety-like behaviors in ethanol-withdrawn SD rats after chronic ethanol exposure was assayed by central amygdaloid infusion of the Sir-2 inhibitor, sirtinol. […] Sirtinol (0.5 μl of 25 μM sirtinol) or vehicle (0.5 μl of 0.3% DMSO diluted with artificial CSF) was infused into the CeA of ethanol-withdrawn and control rats, and anxiety was measured after two hours. Anxiety-like behaviors in rats were then measured in the EPM test. […]

[5] = system: ethanol-withdrawn SD rats; assay: Light/dark box exploration test of anxiety-like behaviors in ethanol-withdrawn rats; format: in vivo
Limk1 = Limk1 protein levels in amygdaloid structures of ethanol-withdrawn rats (gold-immunolabeling); format: in vivo; conditions: SAHA 50 mg/kg intraperitoneally, decrease seen in CeA and MeA, FIG. 5
Experimental: The effect on protein levels of Limk1 in the amygdala of ethanol-withdrawn SD rats after chronic ethanol exposure was measured. SD rats were fed with control or ethanol liquid diet, and ethanol-fed rats were withdrawn for 24 hours. […] Brains were collected after perfusion for Limk1 protein level measurement. Protein levels were measured in amygdaloid structures by gold-immunolabeling. Ethanol withdrawal, but not ethanol treatment, produced significant decreases in protein levels of Limk1 in the CeA and MeA, but not in the BLA.

[6] = system: HDAC activity in the amygdala; assay: HDAC activity in the amygdala of ethanol-withdrawn rats; format: in vivo
Experimental: The effect on HDAC activity in the amygdala of ethanol-withdrawn SD rats after chronic ethanol exposure was measured. SD rats were fed with control or ethanol liquid diet, and ethanol-fed rats were withdrawn for 24 hours. Ethanol-withdrawn and control rats were treated with TSA or vehicle two hours before measuring HDAC activity. Ethanol withdrawal after chronic ethanol exposure produced an increase in HDAC activity in the amygdala of rats.
The effect on HDAC activity in the amygdala of ethanol-withdrawn SD rats after chronic ethanol exposure was measured. SD rats were fed with control or ethanol liquid diet, and ethanol-fed rats were withdrawn for 24 hours. […] Two hours after injections, brains were collected to measure HDAC activity. The nuclear and cytosolic fractions of amygdala were prepared and HDAC activities were measured using an HDAC ELISA kit. Ethanol withdrawal after chronic ethanol exposure produced an increase in nuclear, but not cytosolic, HDAC activity in the amygdala of rats.

Sir-2 = conditions: Landry et al 2000; Blander et al 2004; cited from earlier work
non-preferring (NP) rats = assay: Two-bottle voluntary alcohol intake in non-preferring rats; format: in vivo; conditions: TSA 2 mg/kg intraperitoneal daily, last three days of 9% alcohol drinking
Experimental: (§4) The effect of HDAC inhibition on the alcohol consumption of alcohol-preferring (P) and non-preferring (NP) rats was assayed. Selective breeding has produced the P and NP rat lines with high and low alcohol preference, respectively (Li T. K, Lumeng L, Doolittle D P, Behav. Genet. 23:163-170, 1993; McKinzie D L, Nowak K L, Murphy J M, Li T K, Lumeng L, McBride W J, Alcohol Clin. Exp. Res. 22:1584-1590, 1998). P and NP rats were habituated to drink water equally from two bottles. One bottle was then replaced with 7% ethanol for the first three days and 9% ethanol for the next seven days. During the last three days of 9% alcohol drinking, rats were treated with TSA daily (2 mg/kg intraperitoneal injection). […] As a result of the large reduction in voluntary alcohol consumption by the alcohol-preferring animal model when treated with an HDAC inhibitor, it is expected that HDAC inhibitors also prevent the development of alcohol dependence.

CBP [7] = assay: CBP protein levels in amygdaloid structures of ethanol-withdrawn rats (gold-immunolabeling); format: in vivo; conditions: TSA
Experimental: as §3

[8] = system: class I and class II HDACs; conditions: Yoshida et al 1990; cited from earlier work
[9] = system: alcohol-preferring (P) rats; assay: Two-bottle voluntary alcohol intake in alcohol-preferring rats; format: in vivo; conditions: TSA 2 mg/kg intraperitoneal daily, last three days of 9% alcohol drinking
Experimental: as §4

NPY = NPY mRNA and protein levels in amygdaloid structures of ethanol-withdrawn rats; format: in vivo; conditions: TSA, reduction seen in CeA and MeA
Experimental: The effect of HDAC inhibition on NPY mRNA and protein levels in ethanol-withdrawn SD rats after chronic ethanol exposure was also assayed using trichostatin A (TSA). SD rats were fed control or ethanol liquid diet, and ethanol-fed rats were withdrawn for 24 hours. Ethanol-withdrawn and control rats were treated with TSA or vehicle, and mRNA and protein levels were measured in amygdaloid structures. In the CeA and MeA, but not in the BLA, ethanol withdrawal produced significant reductions in both mRNA and protein levels of NPY. […] Thus, NPY expression is also normalized by TSA treatment during ethanol withdrawal after chronic ethanol exposure.

Sir-2 (HDAC III) = assay: Sir-2 protein levels in amygdaloid structures of ethanol-withdrawn rats (gold-immunolabeling); format: in vivo; conditions: TSA
Experimental: as §3

HAT = conditions: Mantelingu et al 2007; cited from earlier work

p300 HAT, sequence (Q09472 whole entry, species assumed): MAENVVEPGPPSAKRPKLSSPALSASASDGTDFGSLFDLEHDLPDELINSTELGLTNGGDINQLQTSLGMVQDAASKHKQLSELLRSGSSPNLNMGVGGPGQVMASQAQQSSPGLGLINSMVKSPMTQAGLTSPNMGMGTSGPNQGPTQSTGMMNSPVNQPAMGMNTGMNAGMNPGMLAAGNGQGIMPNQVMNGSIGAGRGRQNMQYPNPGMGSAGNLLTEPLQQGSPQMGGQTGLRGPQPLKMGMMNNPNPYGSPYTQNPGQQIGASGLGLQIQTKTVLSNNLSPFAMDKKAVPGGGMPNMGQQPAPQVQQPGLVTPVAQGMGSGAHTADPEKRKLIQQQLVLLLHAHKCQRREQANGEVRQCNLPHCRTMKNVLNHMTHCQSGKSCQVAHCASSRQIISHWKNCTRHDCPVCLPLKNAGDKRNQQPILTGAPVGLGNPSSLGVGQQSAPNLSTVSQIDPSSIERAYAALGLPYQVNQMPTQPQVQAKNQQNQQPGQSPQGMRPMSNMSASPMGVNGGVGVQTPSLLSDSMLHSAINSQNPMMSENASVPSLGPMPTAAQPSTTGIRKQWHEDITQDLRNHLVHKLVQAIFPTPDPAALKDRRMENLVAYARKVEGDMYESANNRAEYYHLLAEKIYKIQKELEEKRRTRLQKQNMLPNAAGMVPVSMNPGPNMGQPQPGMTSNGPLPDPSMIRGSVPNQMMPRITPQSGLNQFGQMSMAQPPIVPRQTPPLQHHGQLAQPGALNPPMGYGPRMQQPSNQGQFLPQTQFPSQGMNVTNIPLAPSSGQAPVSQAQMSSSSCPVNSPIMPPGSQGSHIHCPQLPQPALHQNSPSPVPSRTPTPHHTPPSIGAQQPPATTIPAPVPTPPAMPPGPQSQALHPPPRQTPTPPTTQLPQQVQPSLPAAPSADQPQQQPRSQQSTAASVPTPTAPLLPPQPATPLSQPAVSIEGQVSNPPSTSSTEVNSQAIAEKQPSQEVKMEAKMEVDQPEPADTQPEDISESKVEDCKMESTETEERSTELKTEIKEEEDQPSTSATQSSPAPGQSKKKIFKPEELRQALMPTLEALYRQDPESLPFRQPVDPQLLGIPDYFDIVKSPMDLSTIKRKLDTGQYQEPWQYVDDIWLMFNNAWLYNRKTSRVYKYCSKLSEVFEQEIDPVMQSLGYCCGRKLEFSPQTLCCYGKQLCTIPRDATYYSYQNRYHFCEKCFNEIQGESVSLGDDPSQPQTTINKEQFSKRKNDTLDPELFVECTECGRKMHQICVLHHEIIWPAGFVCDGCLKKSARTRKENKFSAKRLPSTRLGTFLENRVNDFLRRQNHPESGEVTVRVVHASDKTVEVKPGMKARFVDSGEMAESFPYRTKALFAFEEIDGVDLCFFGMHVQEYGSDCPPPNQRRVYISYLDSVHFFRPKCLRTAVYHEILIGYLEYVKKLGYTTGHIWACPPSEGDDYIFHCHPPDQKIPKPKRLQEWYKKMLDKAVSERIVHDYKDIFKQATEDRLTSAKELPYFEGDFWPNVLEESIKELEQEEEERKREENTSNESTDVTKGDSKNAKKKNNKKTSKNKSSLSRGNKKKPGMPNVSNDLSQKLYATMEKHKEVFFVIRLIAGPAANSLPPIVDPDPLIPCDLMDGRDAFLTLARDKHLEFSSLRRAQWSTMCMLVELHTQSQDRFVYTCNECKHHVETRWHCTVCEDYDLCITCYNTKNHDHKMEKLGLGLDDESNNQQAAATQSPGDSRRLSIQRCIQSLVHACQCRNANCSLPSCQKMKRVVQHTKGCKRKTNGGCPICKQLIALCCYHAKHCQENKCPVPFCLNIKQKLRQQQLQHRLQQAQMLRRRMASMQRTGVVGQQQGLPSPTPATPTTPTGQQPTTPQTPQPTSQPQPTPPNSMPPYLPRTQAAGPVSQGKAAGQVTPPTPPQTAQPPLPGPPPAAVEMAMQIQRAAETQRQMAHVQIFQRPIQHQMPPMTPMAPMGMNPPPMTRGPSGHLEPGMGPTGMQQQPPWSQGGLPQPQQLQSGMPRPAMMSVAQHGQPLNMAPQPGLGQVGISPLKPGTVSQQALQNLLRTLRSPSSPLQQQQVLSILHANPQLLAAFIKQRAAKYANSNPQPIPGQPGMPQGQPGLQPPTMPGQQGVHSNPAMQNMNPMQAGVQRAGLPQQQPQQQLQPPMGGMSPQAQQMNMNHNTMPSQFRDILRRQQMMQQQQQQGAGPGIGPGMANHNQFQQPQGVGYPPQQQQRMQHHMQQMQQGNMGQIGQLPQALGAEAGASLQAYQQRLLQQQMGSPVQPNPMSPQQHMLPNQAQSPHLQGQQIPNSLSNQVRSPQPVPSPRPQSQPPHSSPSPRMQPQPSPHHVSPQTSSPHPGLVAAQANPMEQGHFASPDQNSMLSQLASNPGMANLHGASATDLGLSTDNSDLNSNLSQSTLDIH

CCO [ethanol]
protein level of acetylated histone H3 (acetylated histone H3 [1]; BLA): not in basolateral amygdaloid (BLA) structures | protein level of acetylated histone H3 (acetylated histone H3 [1]; CeA): increased protein levels | protein level of acetylated histone H3 (acetylated histone H3 [1]; MeA): increased protein levels | protein level of acetylated histone H4 (acetylated histone H4; CeA): increased protein levels | protein level of acetylated histone H4 (acetylated histone H4; MeA): increased protein levels | protein level of CBP (CBP [2]; BLA): not in basolateral amygdaloid (BLA) structures | protein level of CBP (CBP [2]; CeA): increased protein levels | protein level of CBP (CBP [2]; MeA): increased protein levels | anxiolytic responses (Sprague-Dawley (SD) rats): anxiolytic effects | inhibition of HDAC activity in the amygdala compared to n-saline-treated rats (HDACs in the amygdala): 36%

CCCCCCCCCCCCCCCc1cccc(OCC)c1C(=O)Nc1ccc(Cl)c(C(F)(F)F)c1 [CTPB, N-(4-chloro-3-trifluoromethyl-phenyl)-2-ethoxy-6-pentadecyl-benzamide]
HDAC activity (HDAC): without affecting HDAC activity | p300 HAT activity (p300 HAT): activate p300 HAT activity

O=C(CCCCCCC(=O)Nc1ccccc1)NO [SAHA, suberoylanilide hydroxamic acid]
histone H3-K9 acetylation (acetylated histone H3 [3]; BLA): had no effects on histone H3-K9 acetylation | histone H3-K9 acetylation (acetylated histone H3 [3]; CeA and MeA): corrected the deficits in histone H3-K9 acetylation | anxiety-like behaviors (open-arm activity) in EPM test ([4]; SAHA 50 mg/kg intraperitoneally, 24 hours ethanol withdrawal, FIG. 1B): prevented these anxiety-like behaviors | anxiety-like behaviors (time spent in the light box) ([5]; SAHA 50 mg/kg intraperitoneally, 24 hours ethanol withdrawal, FIG. 1A): significantly reduced these anxiety-like behaviors | Limk1 protein levels (Limk1): normalized Limk1 levels | withdrawal-induced increase in nuclear HDAC activity in the amygdala ([6]; SAHA 50 mg/kg intraperitoneally, two hours after injection, nuclear fraction, HDAC ELISA kit, FIG. 2): attenuated this increase in nuclear HDAC activity

CC(NC(=O)c1ccccc1/N=C/c1c(O)ccc2ccccc12)c1ccccc1 (stereo not shown) [sirtinol]
inhibition of Sir-2 (Sir-2): specific inhibitor of Sir-2 | anxiety-like behaviors (open-arm activity) in EPM test ([4]; 0.5 μl of 25 μM sirtinol infused into the CeA, two hours before test, 24 hours ethanol withdrawal): development of these anxiety-like behaviors was prevented

CC(/C=C/C(=O)NO)=C\[C@@H](C)C(=O)c1ccc(N(C)C)cc1 [TSA, trichostatin A]
alcohol intake (non-preferring (NP) rats): not in low alcohol-drinking NP rats | CBP levels (CBP [7]): did not modulate CBP and Sir-2 levels | inhibition of class I and class II HDACs [8]: potently inhibits class I and class II HDACs | alcohol intake [9]: significantly attenuated the alcohol intake | NPY mRNA and protein levels (NPY): restored NPY levels to normal; also recorded: normalized the reduction in NPY expression | acetylated histone H3 levels (acetylated histone H3 [3]; TSA, reduction seen in CeA and MeA): rescued acetylated histone H3 levels; also recorded: normalized the reduction in acetylation of histone H3 | anxiety-like behaviors (open-arm activity) in EPM test ([4]; TSA two hours before test, 24 hours ethanol withdrawal after chronic ethanol): restored these anxiety-like behaviors to normal levels; also recorded: prevented the development of anxiety-like behaviors | anxiety-like behaviors (time spent in the light box) ([5]; TSA, 24 hours ethanol withdrawal after chronic ethanol): significantly reduced these anxiety-like behaviors | Sir-2 levels (Sir-2 (HDAC III)): did not modulate CBP and Sir-2 levels | withdrawal-induced increase in HDAC activity in the amygdala ([6]; TSA two hours before measurement, 24 hours ethanol withdrawal): completely prevented this increase in HDAC activity; also recorded: normalized the increase in HDAC activity

CCOc1ccccc1C(=O)Nc1ccc(Cl)c(C(F)(F)F)c1 [CTB, N-(4-chloro-3-trifluoromethyl-phenyl)-2-ethoxy-benzamide]
HAT activation (HAT): HAT activators
